Test results published in paper PMC10937738, “Evaluation of the photoprotective and antioxidant potential of an avobenzone derivative” (Frontiers in Physiology, 2024).
Where “and” joins values, the source holds several entries; their conditions need not be identical. Equal values may be shown once. Entries after “also recorded” stand apart in the source; their conditions may differ.

Key:
[1] = DPPH free radical scavenging; conditions: 30 min in the dark, absorbance 517 nm
Experimental: The DPPH free radical scavenging method was conducted according to [Martins et al. (2016)], with modifications. This assay is based on the reduction of the 2,2-diphenyl-1-picrylhydrazyl radical by the antioxidant agent, acting as a hydrogen donor. DPPH is a stable radical due to its molecular conformation, capable of reacting with hydrogen/electron donors, generating its reduced form, accompanied by a reduction in its absorbance (517 nm) ([Kedare and Singh, 2011]). The antioxidant activity is then determined by monitoring the change in the color of the reaction medium, changing from violet to yellow ([Pisoschi and NEgulescu, 2012]).
In a 96-well plate, 100 µL of each sample were diluted in methanol. The concentrations used for avobenzone derivative under study were […] (constant factor: 2) and quercetin was used as a positive control for the test (14–0.109 μg/mL, constant factor: 2). The plate was covered and kept in a dark place for 30 min at room temperature. The absorbance reading was performed at 517 nm using a microplate reader (Synergy™ 2#, Biotek, United States), and the results obtained were used to calculate the inhibition percentages. […] The half maximum inhibitory concentration (IC50-DPPH) was calculated using the linear equation by replacing the value of y with 50 ([Chen et al., 2013]).

[2] = test system: HaCaT keratinocytes; assay: Protection against intracellular UVA-induced ROS production (DCFH2-DA probe), HaCaT monolayer; format: cell-based; conditions: UVA 4 J/cm^2
Experimental: To evaluate intracellular ROS production, such as hydroxyl radical, hydrogen peroxide, nitrite and carbonate anion, the probe 2,7-dichlorodihydrofluorescein-diacetate (DCFH2-DA) was used. This probe can undergo hydrolysis by cellular esterases forming the compound DCFH, that can be converted by ROS into the fluorescent compound […] (DCF), measured at the end of the assay ([Kalyanaraman et al., 2012]; [Alam et al., 2013]). The assay was performed under the same conditions (cell type, density and exposure times) as the evaluation of cell viability in immortalized HaCaT keratinocytes.
In detail, 1 × 10^5 cells/well of HaCaT keratinocytes were seeded in 96-well plates and incubated for 24 h at 37°C in a 5% CO2 atmosphere. Then, cells were treated with the avobenzone derivative (31,25–1,000 μg/mL; constant factor: 2) for 1 h and the probe DCFH2-DA (10 µM) for 30 min, followed by 4 J/cm^2 of UVA radiation (Solar simulator Dr. Hönle type SOL-500, Planegg, Germany). This UV waveband was chosen because UVA and visible light are the most relevant radiations for ERO production ([Zastrow et al., 2009]; [Vandersee et al., 2015]). Quercetin (10 μg/mL) and norfloxacin (100 μg/mL) were used as antioxidant and pro-oxidant controls, respectively. The plates were measured using a microplate reader (Synergy™ HT, BioTek, United States) at 485 nm excitation and 528 nm emission. Results are expressed as a percentage of fluorescence in relation to the irradiated control, considered 100%.

[3] = Photostability by UV spectrophotometry, solutions in isopropanol; format: physicochemical
Experimental: To assess the photoprotective potential of the new UV filter’s derivative, as well as its combination with avobenzone and octyl methoxycinnamate (Cb), a photostability assay was conducted irradiating all samples at a dose of 27,6 J/cm^2 emitted by a UVA lamp (Philips UVA Actinic BL/10, Netherlands) ([ICH, 1996]; [1998]), while the negative controls were kept in a dark place. The derivative was tested at 100 μg/mL in isopropanol and the combinations Cb (avobenzone, octyl methoxycinnamate and avobenzone derivative) and Cc (avobenzone, octyl methoxycinnamate and ethylhexyl methoxycrylene were tested with a proportion of 4:8:5 (w/w), where the initial concentrations were 100 μg/mL for octyl methoxycinnamate, 50 μg/mL for avobenzone and 62.5 μg/mL for avobenzone derivative/ethylhexyl methoxycrylene. Solutions were analyzed by spectrophotometry in the 280–400 nm range. The results are expressed as a percentage of the area of irradiated samples related to the area of non-irradiated samples according to [Gaspar and Maia Campos (2006)] and [Tavares et al. (2020)].

[4] = test system: reconstructed human skin (RHS); assay: UVA-induced intracellular ROS production (DCFH2-DA probe) in reconstructed human skin model; format: cell-based; conditions: 200 μg/mL, 25 µL topical 1 h; UVA 10 J/cm^2
Experimental: In-house RHS models were prepared on 24-well cell culture inserts, with primary human fibroblasts and keratinocytes from foreskin (pooled from three donors) after approval by the Ethics Committee in Research Involving Human Beings—School of Pharmaceutical Sciences of Ribeirão Preto—USP (CAAE n° 35685220.3.0000.5403; Protocol CEP/FCFRP n° 551).
Primarily, the dermal compartment consisted of collagen type I (Corning®) and 1.14 × 10^5 normal human fibroblasts that were seeded into the insert (0.4 µm pore size; ThinCert™, Greiner Bio-One GmbH, Frickenhausen—Germany) and incubated overnight. After 20 h, 3.7 × 10^5 normal human keratinocytes were seeded on the top of the dermis mixture and kept submerged in an in-house prepared culture medium for 24 h, so the cells could form a monolayer. […]
Immediately after irradiation and washing with PBS, the tissues were frozen in liquid nitrogen and 8 µm histological sections were obtained in a cryostat. Pictures were taken in an inverted Ti-S microscope (Nikon Instruments Inc., Holland), 488 nm, using 100 ms of exposure intensity and analyzed by ImageJ software ([Rasmussen et al., 2010]; [Marionnet et al., 2014]). Results of fluorescence intensity were normalized to area/pixels and expressed as percent fluorescence compared to untreated irradiated (NT + UV) control, considered 100%.

[5] = test system: 3T3 BALB/c fibroblasts; assay: 3T3 Neutral red uptake phototoxicity test (3T3 NRU PT, OECD TG 432); format: cell-based; conditions: UVA 9 J/cm^2
Experimental: The 3t3 Neutral red uptake phototoxicity (3t3 NRU PT) test was performed in accordance to OECD TG n° 432 ([OECD, 2019a]) using 3T3 BALB/c fibroblasts cells from the Cell Bank of Rio de Janeiro (Rio de Janeiro, Brazil). Fibroblasts were cultured in DMEM supplemented with calf serum (10% v/v), L-glutamine (4 mM) and antibiotic mixture (penicillin, streptomycin and amphotericin B) and incubated at 37°C with 5% CO2. […] The initial concentration for the proportion 5:7:5 was 100 μg/mL for octyl methoxycinnamate, 71.4 μg/mL for avobenzone, and 71.4 μg/mL for avobenzone derivative. These preparations were also diluted in PBS (pH 7.2) to generate samples with 8 different concentrations in a geometric progression (constant factor = 1.47). The highest final concentration of DMSO was 1%. Fibroblasts were seeded at a density of 10^4 cell/well and after 24 h of incubation (5% CO2; 37°C), they were treated with 8 different concentrations of the combinations in the wells in sextuplicate, incubated for 1 h (5% CO2; 37°C) and irradiated with UVA radiation of 9 J/cm^2. […]
Cell viability was measured using the NRU assay with the uptake of the vital dye neutral red into cellular lysosomes. […] After measuring the absorbance of both plates at 540 nm using a microplate reader (SynergyTM 2, Biotek), all data were analyzed by Phototox Software 2.0 (ZEBET, Germany), and the mean photo effect (MPE) was calculated. […]

[6] = Photoreactivity ROS assay (OECD TG 495): singlet oxygen (SO) and superoxide anion (SA) generation
Experimental: The photoreactivity assay was conducted to detect the generation of oxygen singlet (^1O2; SO) and superoxide anion (O2 ^−•; SA), according to OECD TG n° 495, as described in [Freitas et al. (2015)]. […] SO generation was detected by spectrophotometric measurement of p-nitrosodimethylaniline (RNO) bleaching, followed by decreased absorbance of RNO at 440 nm and SA generation was detected by observing the reduction of nitroblue tetrazolium (NBT) at 560 nm. The assay was performed in triplicate in three independent experiments.
According to the ROS Assay protocol ([OECD, 2019b]), the compound’s photoreactivity is classified according to Table 2.

[7] = test system: HaCaT keratinocytes; assay: Cell viability of HaCaT keratinocytes (NRU assay); format: cell-based; conditions: SDS 100 μg/mL; for Cytotoxicity for HaCaT cells: avobenzone derivative 31.25–1,000 μg/mL, vs untreated control, 70% threshold ISO 10993-5
Experimental: Prior to the beginning of the assay, cell viability was evaluated to exclude the possibility that the decrease in fluorescence intensity was related to cell death and not to antioxidant activity. HaCaT keratinocytes were cultured in DMEM supplemented with fetal bovine serum (10%), pyruvate (1 mM), penicillin (100 IU/mL) and streptomycin (100 μg/mL), seeded in 96-well plates (1 × 10^5 cells/well) and, 24 h later, treated with avobenzone derivative (31,25–1000 μg/mL; constant factor: 2). Cell viability was determined using the NRU assay ([Gaspar et al., 2013]; [Rangel et al., 2020]) and sodium dodecyl sulfate (SDS) was used as a positive control (100 μg/mL). Untreated cells absorbance at 540 nm were considered 100% of cell viability to calculate the percentage relative to each sample tested.

[8] = design: method as in Santana Reis et al., 2014; conditions: method not stated; ref Santana Reis et al., 2014; cited from earlier work
[9] = solutions in isopropanol, UVA dose 27,6 J/cm^2, area under curve of irradiated vs non-irradiated (100%)

Structure (SMILES): O=c1c(O)c(-c2ccc(O)c(O)c2)oc2cc(O)cc(O)c12 [quercetin, reference compound]
- IC50 (DPPH) [1]: 2.85 ± 1.03 µg/mL
- Decrease of ROS production compared to NT + UV ([2]; 10 μg/mL): approx. 67%

Structure (SMILES): O=C(N/N=C/c1ccc(O)cc1)c1ccc(O)cc1 [avobenzone derivative, (E)-4-hidroxi-N’-(4-hydroxybenzylidene)benzohydrazide]
- IC50 (DPPH) [1]: 18.2 ± 10.2 µg/mL
- Remaining absorption values after irradiation (%) UVA [3, 9]: 97.7 ± 2.5%
- Remaining absorption values after irradiation (%) UVB [3, 9]: 97.8 ± 2.1%
- Stability classification ([3]; solutions, irradiated vs non-irradiated pair (p < 0.05 = photounstable)): Photostable
- Reduction in ROS generation compared to NT + UV [4]: 30.7%
- Prediction model (phototoxicity) ([5]; OECD TG 432): non phototoxic; also recorded: Non-Phototoxic
- Reduction in ROS generation compared to NT + UV ([2]; 125 μg/mL): 37%
- Reduction in ROS generation compared to NT + UV ([2]; 250 μg/mL): 31%
- Reduction in ROS generation compared to NT + UV ([2]; 500 μg/mL): 58%
- ROS values higher than NT + UV (possible pro-oxidant effect) ([2]; 1,000 μg/mL): 5%
- Classification (photoreactivity) [6]: Non-photoreactive
- Cytotoxicity for HaCaT cells [7]: not cytotoxic
- LogP [8]: 1.32 ± 0.52

Structure (SMILES): CC(C(=O)O)c1cccc(C(=O)c2ccccc2)c1 (stereo not drawn) [Ketoprofen, ketoprofen]
- SA (superoxide anion generation, NBT reduction at 560 nm) ([6]; avobenzone derivative 1.0 mM, mean ± SEM, n = 3): 116 ± 20.6

Structure (SMILES): CCn1cc(C(=O)O)c(=O)c2cc(F)c(N3CCNCC3)cc21 [Norfloxacin, reference compound]
- MPE (mean photo effect) ([5]; Phototox Software 2.0, one value per independent experiment (two)): 0.568 and 0.520
- Increase of ROS production compared to NT + UV ([2]; 100 μg/mL): approx. 46%

Structure (SMILES): N[C@@H](Cc1c[nH]cn1)C(=O)O [L-histidine]
- Classification (photoreactivity) [6]: Non-photoreactive

Structure (SMILES): CCCCCCCCCCCCOS(=O)(=O)[O-].[Na+] [SDS, sodium dodecyl sulfate]
- Cell viability ([7]; untreated cells = 100%): < 70%
- Cytotoxicity for HaCaT cells [7]: cytotoxic
